Experimental data: the NIST ThermoML archive (doi:10.1021/je900597n)

Assay: xn = mol fraction of the nth substance listed
Conditions: 101 kPa, Liquid; for speed of sound: Pulse-echo method

CCCNCCC [dipropylamine] + COC(C)(C)C
Conditions | mass density, 288.15 K [kg/m3] | mass density, 293.15 K [kg/m3] | mass density, 298.15 K [kg/m3] | mass density, 303.15 K [kg/m3] | mass density, 308.15 K [kg/m3] | speed of sound, 288.15 K [m/s] | speed of sound, 293.15 K [m/s] | speed of sound, 298.15 K [m/s] | speed of sound, 303.15 K [m/s] | speed of sound, 308.15 K [m/s]
x2 = 0 | 745.064 | 740.501 | 735.924 | 731.333 | 726.732 | 1235.1 | 1213.4 | 1191.9 | 1170.4 | 1149
x2 = 0.0455 | 744.529 | 739.961 | 735.381 | 730.779 | 726.199 | 1226.5 | 1204.6 | 1182.9 | 1161.5 | 1140.1
x2 = 0.0993 | 743.741 | 739.141 | 734.529 | 729.903 | 725.268 | 1218.5 | 1196.6 | 1174.9 | 1153.4 | 1132
x2 = 0.1886 | 743.725 | 739.088 | 734.436 | 729.765 | 725.081 | 1206.8 | 1184.9 | 1163 | 1141.4 | 1120
x2 = 0.304 | 744.015 | 739.319 | 734.607 | 729.854 | 725.082 | 1191.2 | 1169.1 | 1147.2 | 1125.5 | 1103.9
x2 = 0.3981 | 744.373 | 739.628 | 734.96 | 730.165 | 725.325 | 1179 | 1156.8 | 1134.8 | 1112.9 | 1091.2
x2 = 0.4954 | 744.92 | 740.107 | 735.272 | 730.41 | 725.531 | 1164.9 | 1142.8 | 1120.8 | 1099.1 | 1076.8
x2 = 0.5839 | 745.36 | 740.49 | 735.593 | 730.664 | 725.713 | 1152.3 | 1130 | 1107.8 | 1085.9 | 1063.8
x2 = 0.7057 | 745.893 | 740.912 | 735.904 | 730.891 | 725.831 | 1131.9 | 1109.4 | 1087 | 1064.9 | 1042.5
x2 = 0.7685 | 746.206 | 741.193 | 736.153 | 731.058 | 725.925 | 1121.7 | 1099.1 | 1076.6 | 1054.4 | 1032
x2 = 0.8876 | 746.684 | 741.588 | 736.455 | 731.289 | 726.066 | 1103.9 | 1080.8 | 1057.9 | 1035.3 | 1012.9
x2 = 0.9337 | 746.947 | 741.806 | 736.641 | 731.421 | 726.159 | 1097 | 1073.6 | 1050.7 | 1028 | 1005.4
